PubChem BioAssay (NCI)
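Where inhibition never reached the appropriate level, the endpoint shown equals the highest concentration tested. Otherwise, values were interpolated linearly from a five-concentration, 48-hour dose response in 96-well plates. At the GI50, growth is halved. Definition used: TGI = concentration required for complete inhibition of growth.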

What was measured:
Assay in all cases: DTP human tumour cell line panel, 48 h
OVCAR-5 ovarian = tested on: OVCAR-5 ovarian
SW-620 colon = tested on: SW-620 colon
RXF 393 renal = tested on: RXF 393 renal
HCC-2998 colon = tested on: HCC-2998 colon
SN12C renal = tested on: SN12C renal
DU-145 prostate = tested on: DU-145 prostate
RPMI-8226 leukemia = tested on: RPMI-8226 leukemia
NCI-H23 lung = tested on: NCI-H23 lung
OVCAR-8 ovarian = tested on: OVCAR-8 ovarian
UO-31 renal = tested on: UO-31 renal
OVCAR-4 ovarian = tested on: OVCAR-4 ovarian
MDA-MB-435 = tested on: MDA-MB-435
SNB-75 CNS = tested on: SNB-75 CNS
BT-549 breast = tested on: BT-549 breast
A498 renal = tested on: A498 renal
NCI-H522 lung = tested on: NCI-H522 lung
A549 NSCLC = tested on: A549 NSCLC
EKVX NSCLC = tested on: EKVX NSCLC
SF-539 CNS = tested on: SF-539 CNS
786-0 renal = tested on: 786-0 renal
U251 CNS = tested on: U251 CNS
HCT-116 colon = tested on: HCT-116 colon
MCF7 breast = tested on: MCF7 breast
HS 578T breast = tested on: HS 578T breast
NCI-H460 lung = tested on: NCI-H460 lung
SK-MEL-2 melanoma = tested on: SK-MEL-2 melanoma
K-562 leukemia = tested on: K-562 leukemia
M14 melanoma = tested on: M14 melanoma
HOP-62 NSCLC = tested on: HOP-62 NSCLC
SK-MEL-5 melanoma = tested on: SK-MEL-5 melanoma
HL-60(TB) leukemia = tested on: HL-60(TB) leukemia
SR leukemia = tested on: SR leukemia
LOX IMVI melanoma = tested on: LOX IMVI melanoma
SK-OV-3 ovarian = tested on: SK-OV-3 ovarian
NCI/ADR-RES ovarian = tested on: NCI/ADR-RES ovarian
CAKI-1 renal = tested on: CAKI-1 renal
HCT-15 colon = tested on: HCT-15 colon
ACHN renal = tested on: ACHN renal
SK-MEL-28 melanoma = tested on: SK-MEL-28 melanoma
NCI-H226 lung = tested on: NCI-H226 lung
HT29 colon = tested on: HT29 colon
MDA-MB-231 breast = tested on: MDA-MB-231 breast
UACC-257 melanoma = tested on: UACC-257 melanoma
IGROV1 ovarian = tested on: IGROV1 ovarian
SNB-19 CNS = tested on: SNB-19 CNS
COLO 205 colon = tested on: COLO 205 colon
T-47D breast = tested on: T-47D breast
OVCAR-3 ovarian = tested on: OVCAR-3 ovarian
UACC-62 melanoma = tested on: UACC-62 melanoma
HOP-92 NSCLC = tested on: HOP-92 NSCLC
SF-295 CNS = tested on: SF-295 CNS
MOLT-4 leukemia = tested on: MOLT-4 leukemia
MALME-3M melanoma = tested on: MALME-3M melanoma
TK-10 renal = tested on: TK-10 renal
CCRF-CEM leukemia = tested on: CCRF-CEM leukemia
KM12 colon = tested on: KM12 colon
SF-268 CNS = tested on: SF-268 CNS
PC-3 prostate = tested on: PC-3 prostate

O=c1oc2ccc(F)cc2c(=O)n1-c1ccc(I)cc1F
GI50 (OVCAR-5 ovarian): 3.4 µM
TGI (OVCAR-5 ovarian): > 54.5 µM
GI50 (SW-620 colon): 0.584 µM
TGI (SW-620 colon): 13.3 µM
GI50 (RXF 393 renal): 0.543 µM
TGI (RXF 393 renal): 3.3 µM
GI50 (HCC-2998 colon): 3.1 µM
TGI (HCC-2998 colon): 9.85 µM
GI50 (SN12C renal): 0.381 µM
TGI (SN12C renal): 5.45 µM
GI50 (DU-145 prostate): 0.497 µM
TGI (DU-145 prostate): 26.4 µM
GI50 (RPMI-8226 leukemia): 0.239 µM
TGI (RPMI-8226 leukemia): 0.745 µM
GI50 (NCI-H23 lung): 0.311 µM
TGI (NCI-H23 lung): 1.59 µM
GI50 (OVCAR-8 ovarian): 0.872 µM
TGI (OVCAR-8 ovarian): > 41.9 µM
GI50 (UO-31 renal): 0.241 µM
TGI (UO-31 renal): 1.46 µM
GI50 (OVCAR-4 ovarian): 0.298 µM
GI50 (MDA-MB-435): 0.419 µM
TGI (MDA-MB-435): 3.94 µM
GI50 (SNB-75 CNS): 0.368 µM
TGI (SNB-75 CNS): 10.4 µM
GI50 (BT-549 breast): 0.486 µM
TGI (BT-549 breast): 4.09 µM
GI50 (A498 renal): 0.191 µM
TGI (A498 renal): 0.646 µM
GI50 (NCI-H522 lung): 0.322 µM
GI50 (A549 NSCLC): 2.4 µM
TGI (A549 NSCLC): > 94.7 µM
GI50 (EKVX NSCLC): 0.831 µM
TGI (EKVX NSCLC): 7.27 µM
GI50 (SF-539 CNS): 0.42 µM
TGI (SF-539 CNS): 5.17 µM
GI50 (786-0 renal): 1.67 µM
TGI (786-0 renal): 8.1 µM
GI50 (U251 CNS): 0.469 µM
TGI (U251 CNS): > 100 µM
GI50 (HCT-116 colon): 0.387 µM
TGI (HCT-116 colon): 2.03 µM
GI50 (MCF7 breast): 0.762 µM
TGI (MCF7 breast): 9.03 µM
GI50 (HS 578T breast): 0.352 µM
TGI (HS 578T breast): 2.52 µM
GI50 (NCI-H460 lung): 0.404 µM
TGI (NCI-H460 lung): 9.85 µM
GI50 (SK-MEL-2 melanoma): 0.344 µM
TGI (SK-MEL-2 melanoma): 1.9 µM
GI50 (K-562 leukemia): 0.397 µM
TGI (K-562 leukemia): > 100 µM
GI50 (M14 melanoma): 0.49 µM
TGI (M14 melanoma): 4.27 µM
GI50 (HOP-62 NSCLC): 0.916 µM
TGI (HOP-62 NSCLC): 14.9 µM
GI50 (SK-MEL-5 melanoma): 0.224 µM
TGI (SK-MEL-5 melanoma): 0.521 µM
GI50 (HL-60(TB) leukemia): 0.366 µM
TGI (HL-60(TB) leukemia): 1.83 µM
GI50 (SR leukemia): 0.388 µM
TGI (SR leukemia): 11.1 µM
GI50 (LOX IMVI melanoma): 0.374 µM
TGI (LOX IMVI melanoma): 2.29 µM
GI50 (SK-OV-3 ovarian): 0.522 µM
TGI (SK-OV-3 ovarian): 10.5 µM
GI50 (NCI/ADR-RES ovarian): 0.522 µM
TGI (NCI/ADR-RES ovarian): 5.89 µM
GI50 (CAKI-1 renal): 0.337 µM
TGI (CAKI-1 renal): 2.19 µM
GI50 (HCT-15 colon): 0.471 µM
TGI (HCT-15 colon): 10.9 µM
GI50 (ACHN renal): 0.43 µM
TGI (ACHN renal): 7.39 µM
GI50 (SK-MEL-28 melanoma): 0.392 µM
TGI (SK-MEL-28 melanoma): 1.89 µM
GI50 (NCI-H226 lung): 0.472 µM
TGI (NCI-H226 lung): 4.5 µM
GI50 (HT29 colon): 3.29 µM
TGI (HT29 colon): > 33 µM
GI50 (MDA-MB-231 breast): 0.614 µM
TGI (MDA-MB-231 breast): 3.61 µM
GI50 (UACC-257 melanoma): 0.432 µM
TGI (UACC-257 melanoma): 4.79 µM
GI50 (IGROV1 ovarian): 0.397 µM
TGI (IGROV1 ovarian): 15.6 µM
GI50 (SNB-19 CNS): 0.409 µM
TGI (SNB-19 CNS): > 54.3 µM
GI50 (COLO 205 colon): 2.67 µM
TGI (COLO 205 colon): 8.82 µM
GI50 (T-47D breast): 0.29 µM
TGI (T-47D breast): 9.24 µM
GI50 (OVCAR-3 ovarian): 0.37 µM
TGI (OVCAR-3 ovarian): 6.36 µM
GI50 (UACC-62 melanoma): 0.293 µM
TGI (UACC-62 melanoma): 1.1 µM
GI50 (HOP-92 NSCLC): 0.206 µM
TGI (HOP-92 NSCLC): 0.577 µM
GI50 (SF-295 CNS): 1.86 µM
TGI (SF-295 CNS): 3.68 µM
GI50 (MOLT-4 leukemia): 1.07 µM
TGI (MOLT-4 leukemia): 3.65 µM
GI50 (MALME-3M melanoma): 0.305 µM
TGI (MALME-3M melanoma): 1.17 µM
GI50 (TK-10 renal): 1.06 µM
TGI (TK-10 renal): 17.5 µM
GI50 (CCRF-CEM leukemia): 1.83 µM
TGI (CCRF-CEM leukemia): 52 µM
GI50 (KM12 colon): 1.92 µM
TGI (KM12 colon): 5.38 µM
GI50 (SF-268 CNS): 0.435 µM
TGI (SF-268 CNS): 8.25 µM
GI50 (PC-3 prostate): 1.48 µM
TGI (PC-3 prostate): 6.58 µM
